Entries after “also recorded” stand apart in the source; their conditions may differ.
Assays:
[1] = High-throughput colorimetric calcium depletion assay (crystallization half-time); conditions: 37° C., crystallization volume 600 μL, shaking; logistic fit
Procedure: Free calcium concentration in the crystallization solution was measured by a colorimetric assay using Quantichrome DICA 500 Calcium assay kit (BioAssay Systems, Hayward, Calif.). Standard solutions (0, 0.1, 0.2, 0.3, 0.4, 0.5, and 1 mM) were prepared using calcium solutions provided with the kit. Detection reagent was prepared by mixing equal volumes of reagent A and reagent B according to manufacturer's instructions. A 10 μL sample was withdrawn from the top of each crystallization well without disturbing the bottom and dispensed into a 96-well microplate. 100 μL of detection reagent was added to each well and incubated for 3 minutes at room temperature. The absorbance was measured at 612 nm using Biotek Synergy H4 microplate reader (BioTek, Winooski, Vt.). Calcium concentration was determined using a calibration curve prepared from standard calcium solutions.
Time course of depletion of free calcium in the crystallization solution, normalized to the initial concentration, was fitted to a nonlinear logistic function using OriginPro Software (Origin Lab, Northhampton, Mass.). The logistic function relating calcium concentration to time is given by
where [Ca]t is the normalized calcium concentration at time t, A1 is the normalized initial supersaturation concentration (i.e at t=0), A2 is the normalized equilibrium concentration (i.e. at t=∞), p is the hill coefficient which represents slope of the curve at midpoint, and t1/2 is the crystallization half-time (CHT), defined as the time at which crystallization is 50% complete (i.e. [Ca]t1/2=[…]). A1 was fixed at 1, and A2, p and t1/2 were obtained from fitting the data to equation 1. CHT was used as a measure of inhibition potentials of the peptides. A one-way ANOVA in combination with Tukey post hoc test at p<0.05 level was used to probe statistical significance. Applicants' studied the effects of experimental parameters including volume, shaking and temperature on crystallization in designing a high-throughput screening assay. Applicants have shown the logistic model effectively represents the three phases: induction, crystal growth and equilibrium observed in our setup, and CHT (t1/2) can be used as a measure of efficacy of potential crystal growth modifiers. The peptide library screened comprised of Asp and Ala residues (peptides D1-D13) at optimized assay conditions of 37° C., crystallization volume of 600 μL in a shaking environment. […] The high throughput of the assay provides the opportunity to assess the growth modulation potential of crystal growth modifiers at varying modifier concentrations, supersaturations and ionic strengths with relative ease. […] Finally, the assay can be translated to other crystallization systems in a relatively straightforward fashion for rational design and discovery of growth modifiers for specific applications.

[2] = In situ calcium ion-selective electrode (ISE) measurement of COM crystallization; conditions: for percent reduction in COM growth rate: 20 μg/ml additive, supersaturated calcium oxalate S=5.4, stirred, ISE slope in first 40 min vs control
Procedure: The COM growth rate was measured as the slope (dCa/dt) of decreasing Ca^2+ concentration within the first 40 min of crystallization. […] The percent reduction in COM growth rate was calculated by comparing the ISE slopes of peptides and control using the formula, Percent Reduction=[1−(dCa/dt)peptide/(dCa/dt)control]×100%. Data are averages of 2 or 3 measurements (error bars equal two standard deviations);
COM crystals for bulk crystallization studies were synthesized using a reported procedure that produces micron-sized crystals with large basal (100) surfaces. COM crystals prepared with molar composition 0.7 mM CaCl2: 0.7 mM Na2C2O4: 150 mM NaCl are referred to as the control. Growth solutions prepared with peptides used 20 μg/ml of the additive (unless otherwise stated).
As such, measurements reported herein were conducted at a single peptide concentration (20 μg/ml) to assess COM growth inhibition. To facilitate comparison of peptides in Table 1, Applicants calculated the percent reduction in COM growth rate using the relative difference in ISE slopes (units of ppm Ca^2+ per time) for peptide and control samples during the first 40 min of crystallization.
The slope of ISE curves (FIG. 2A) is the temporal change in free Ca^2+ concentration due to COM nucleation (primary and secondary) and crystal growth. Deconvoluting these two processes (nucleation and growth) from ISE data is nontrivial, particularly if one wishes to extract detailed kinetic information of COM growth rates. […] In the current study, the distinct advantage of ISE compared to more traditional approaches is its ease of use and the rapid time for data acquisition that enables high-throughput analysis of large peptide libraries.
A quantitative comparison of peptide efficacy for inhibiting COM crystallization was performed using in situ ISE measurements. The percent inhibition in COM growth rate was calculated using the relative difference in ISE slopes in the presence of 20 μg/mL peptide. […] The effect of Asp with Glu in peptide sequences was measured on COM growth inhibition (Table 2).

[3] = Bulk crystallization studies of COM crystal size and habit (optical microscopy, SEM, AFM); conditions: for COM crystal habit / morphology: bulk crystallization with 20 μg/ml peptide
Procedure: FIGS. 4A-4B show macroscopic characterization of COM crystals from bulk crystallization in solutions of 0.5 mM CaC2O4 and 20 μg/ml peptide. Optical microscopy was used to measure: Percent distribution of elongated hexagonal platelet (shaded bars) and diamond platelet (pattern bars) crystal morphologies (FIG. 4A); and length of the COM (100) basal surface measured along the direction (i.e. apical tip-to-tip distance) for hexagonal and diamond morphologies (FIG. 4B). Data in (FIG. 4A) and (FIG. 4B) are the average of three separate crystallization experiments performed at 60° C. for 3 days (error bars equal one standard deviation). Data for peptide D4 (diamond habit) was omitted based on too few crystals for statistical analysis;
COM crystals for bulk crystallization studies were synthesized using a reported procedure that produces micron-sized crystals with large basal (100) surfaces. COM crystals prepared with molar composition 0.7 mM CaCl2: 0.7 mM Na2C2O4: 150 mM NaCl are referred to as the control. Growth solutions prepared with peptides used 20 μg/ml of the additive (unless otherwise stated). The crystals were characterized by optical microscopy using a Leica DM2500-M microscope, scanning electron microscope (SEM) using a FEI 235 Dual-Beam Focused Ion-beam instrument, atomic force microscopy (AFM) using an Asylum MFP-3D-SA instrument (Santa Barbara, Calif.), and a calcium ion-selective electrode (ISE, ThermoScientific).
ISE measurements can be used to screen peptide efficacy, but provide little information regarding the specificity of peptide binding to different surfaces of COM crystals. To this end, Applicants used a second analysis step to identify the effect of peptides on COM crystal size and habit. The influence of the peptide library on macroscopic properties of COM crystals was assessed using bulk crystallization studies and optical and scanning electron microscopy to characterize COM crystals grown in the presence of peptides. In vitro, COM crystallization yields elongated hexagonal platelets with {100} basal surfaces bounded by {010} and crystallographically equivalent {121} apical surfaces (FIG. 3A). […] Applicants observed that multiple peptides in the library reduced growth along the directions, which decreased the crystal aspect ratio (length-to-width) and shifted the morphology from hexagonal to diamond platelets. This change in crystal habit can be attributed to the preferential binding of peptides to COM {121} surfaces, which slows growth along the naturally fast growth directions within the (100) plane.
To more systematically assess the surface topography of COM crystals, Applicants used atomic force microscopy (AFM) to probe the effect of peptides on COM (100) surface roughness. Crystals extracted from control and peptide D5 batches were prepared on AFM sample disks and imaged in air. The RMS roughness for (100) surfaces of hexagonal-shaped crystals from the control and test peptide D5 were approximately 1.0 and 4.3 nm, respectively.
Crystal batches prepared in bulk studies were analyzed using optical microscopy to quantify changes in COM crystal size and aspect ratio. […] Although there were clear differences in the percent population of diamond-shaped crystals among peptides tested in this study, Applicants observed that the size of diamond crystals were generally the same, irrespective of peptide sequence (FIG. 4B). The majority of COM hexagonal platelets in peptide samples had similar size and aspect ratio as the control (here Applicants only report the length of COM crystals in FIG. 4B). A notable exception, however, was peptide D4, which produced a 22% increase in the length-to-width aspect ratio of COM hexagonal crystals, and an increase in the length from 35 μm (control) to 75 μm (peptide D4).

[4] = Calcium ISE measurements of COM growth at room temperature, Glu-Ala peptide library
[5] = ISE slopes in the presence of 20 μg/mL peptide, comparison X = D vs X = E

Row | Substance | CHT (hr), crystallization half-time [1] | % inhibition [2, 5] | COM crystal habit / morphology ([3]; SEM) | further results
1 | ADAAADDAAAAAAAADAA (Synthesized Calcium oxalate monohydrate inhibitory polypeptide) [D7] | 5.771 h | – | – | percent reduction in COM growth rate [2]: < 1%; [100] thickness of hexagonal platelets relative to control ([3]; SEM, 20 μg/ml peptide): decreased the [100] thickness of hexagonal platelets by nearly a factor of two
2 | A-E-A-A-A-E-E-A-A-A-E-A-A-A-E-E-A-A (AEAAAEEAAAEAAAEEAA; Synthesized Calcium oxalate monohydrate inhibitory polypeptide) [E5] | – | 36 ± 21% | – | % inhibition [2, 4]: 36 ± 21%
3 | AADAAAAADDAAAADAAA (Synthesized Calcium oxalate monohydrate inhibitory polypeptide) [D2] | 3.533 h | – | – | –
4 | ADAADAADAADAADAADA (Synthesized Calcium oxalate monohydrate inhibitory polypeptide) [D4] | 4.432 h | 21 ± 10% | higher length-to-width aspect ratio | percent reduction in COM growth rate [2]: 20%; [001] length of COM hexagonal crystals ([3]; 20 μg/ml peptide, control 35 μm): 75 μm; increase in the length-to-width aspect ratio of COM hexagonal crystals ([3]; 20 μg/ml peptide, vs control (2.67±0.05)): 22%
5 | ADAADDAAAAAADAADAA (Synthesized Calcium oxalate monohydrate inhibitory polypeptide) [D11] | 5.767 h | – | large {121} surface area | –
6 | A-E-A-A-E-E-A-A-A-A-A-A-E-A-A-E-A-A (AEAAEEAAAAAAEAAEAA; Synthesized Calcium oxalate monohydrate inhibitory polypeptide) [E7] | – | – | polydisperse distribution of crystals | –
7 | ADAADDAADAADDAAAAA (Synthesized Calcium oxalate monohydrate inhibitory polypeptide) [D5] | 4.641 h | – | – | percent reduction in COM growth rate [2]: 30%; percentage of diamond-shaped crystals in total crystal population ([3]; 20 μg/ml peptide, 60° C. for 3 days, optical microscopy, average of three experiments): largest populations of diamond-shaped crystals; RMS roughness of diamond-shaped crystals ([3]; AFM imaged in air): 3.2 nm; RMS roughness of (100) surfaces of hexagonal-shaped crystals ([3]; AFM imaged in air, control approximately 1.0 nm): ~4.3 nm
8 | A-E-A-A-E-A-A-E-A-A-E-A-A-E-A-A-E-A (AEAAEAAEAAEAAEAAEA; Synthesized Calcium oxalate monohydrate inhibitory polypeptide) [E3] | – | 40 ± 18% | – | –
9 | ADADADADADADADADAD (Synthesized Calcium oxalate monohydrate inhibitory polypeptide) [D13] | 8.114 h | – | – | –
10 | ADAAADDDAAADAAADDD (Synthesized Calcium oxalate monohydrate inhibitory polypeptide) [D6] | 5.041 h | – | – | factor of increase of the [001] length of hexagonal COM crystals relative to the control ([3]; 20 μg/ml peptide): 1.5
11 | ADDAADAADAADDAADDA (Synthesized Calcium oxalate monohydrate inhibitory polypeptide) [D12] | 7.135 h | – | – | –
12 | ADAAADDAAADAAADDAA (Synthesized Calcium oxalate monohydrate inhibitory polypeptide) [D9] | 7.277 h | 36 ± 8% | – | percent reduction in COM growth rate [2]: 40%; increase in peptide efficacy on replacing L-Ala spacer with L-Asp binder (relative to peptide D7) ([2]; ISE, 20 μg/ml, series D7, D8, D9): ~70
13 | DDDAAAAADDDAAAAADD (Synthesized Calcium oxalate monohydrate inhibitory polypeptide) [D1] | 6.482 h | – | small {121} surface area | factor of increase of the [001] length of hexagonal COM crystals relative to the control ([3]; 20 μg/ml peptide): 2.0
14 | ADAAADAADAADDAADAA (Synthesized Calcium oxalate monohydrate inhibitory polypeptide) [D3] | 4.142 h | – | – | –
15 | ADAADAAADAADDAADAA (Synthesized Calcium oxalate monohydrate inhibitory polypeptide) [D10] | 6.054 h | 36 ± 5% | – | –
16 | A-E-A-A-E-A-A-A-E-A-A-E-E-A-A-E-A-A (AEAAEAAAEAAEEAAEAA; Synthesized Calcium oxalate monohydrate inhibitory polypeptide) [E6] | – | 52 ± 16% | polydisperse distribution of crystals; also recorded: less effective than E7 | % inhibition [2, 4]: 52 ± 16%

Source: patent publication US10246489B2, “Peptide inhibitors of calcium oxalate monohydrate crystallization and uses thereof” (UNIVERSITY OF HOUSTON, priority 2013, dated 2019)
